From patent US8637670B2, “Imidazo [4,5-C]quinoline derivatives and their use in the treatment of tumors and/or inflammation” (Piramal Enterprises Limited, priority 2009, dated 2014)

Legend:
U 87 MG = test: Cytotoxicity, propidium iodide assay, U 87 MG; format: cell-based; conditions: Homo sapiens, Glioblastoma, 48 hours treatment, read-out: IC50, C7b (U 87 MG)
Experimental: (§1) The assay was designed as in the reference, Anticancer Drugs, 2002, 13, 1-8, the disclosure of which is incorporated by reference for the teaching of the assay.
(§2) Cells from cell lines as mentioned in the table given below were seeded at a density of 3000 cells/well in a white opaque 96-well plate. Following incubation at 37° C./5% CO2 for a period of 18-24 hours, the cells were treated with various concentrations (stock solution was prepared in DMSO and subsequent dilutions were made in media as per ATCC guidelines) of the compounds of Example 1-40 was for a period of 48 hours. At the end of treatment, the spent culture medium was discarded, the cells were washed with 1×PBS and 200 μl of 7 μg/ml propidium iodide was added to each well. The plates were frozen at −70° C. for at least 24 hours. For analysis, the plates were brought to RT, allowed to thaw and were read in PoleStar fluorimeter with the fluorescence setting. The percentage of viable cells in the non-treated set of wells was considered to be 100 and the percentage viability following treatment was calculated accordingly. IC50 values were calculated from graphs plotted using these percentages. Table 4 depicts the IC50 values of compounds of Example 1-40 in individual cell lines.
(§3) The abbreviations for the Cell Lines as used in Table 4 are: […]

HCT116 = test: Cytotoxicity, propidium iodide assay, HCT116; format: cell-based; conditions: Homo sapiens, HCT-116; Colon, HCT116, 48 hours treatment; read-out: IC50, C4a (HCT116)
Experimental: as §1, §2, §3

IL-6 = test: Human monocyte assay, LPS-stimulated IL-6 (ELISA); format: cell-based; conditions: human monocytes, 1 μg/ml LPS, 5 hours
Experimental: (§4) The assay was designed as in the reference, Physiol. Res., 2003, 52, 593-598, the disclosure of which is incorporated by reference for the teaching of the assay.
(§5) Peripheral blood mononuclear cells (hPBMC) were harvested from human blood and suspended in RPMI 1640 culture medium containing 10% FCS, 100 U/mL penicillin and […] streptomycin (assay medium). Monocytes in the hPBMCs were counted using a Coulter Counter following which the cells were resuspended at 2×10^5 monocytes/mL. A cell suspension containing 2×10^4 monocytes was aliquoted per well of a 96-well plate. Subsequently, the hPBMCs were incubated for 4-5 hours at 37° C. under 5% CO2 (During the incubation, the monocytes adhered to the bottom of 96-well plastic culture plate). Following the incubation, the non-adherent lymphocytes were washed with assay medium and the adherent monocytes re-fed with assay medium. After a 48-hour incubation period (37° C., 5% CO2), monocytes were pretreated with various concentrations of compounds of Example 1-40 (prepared in DMSO) or vehicle (0.5% DMSO) for 30 minutes and stimulated with 1 μg/ml LPS (Escherchia coli 0111:B4, Sigma Chemical Co., St. Louis, Mo.). The incubation was continued for 5 hours at 37° C., 5% CO2. Supernatants were harvested, assayed for IL-6 and TNF-α by ELISA as described by the manufacturer (BD Biosciences, USA). Dexamethasone (10 μM) was used as standard for this assay. The 50% inhibitory concentration (IC50) values were calculated by a nonlinear regression method. In all experiments, a parallel plate was run to ascertain the toxicity of compounds of Example 1-40. The toxicity was determined using the MTS assay as described in Am. J. Physiol. Cell Physiol., 2003, 285, C813-C822.

OVCAR 3 = test: Cytotoxicity, propidium iodide assay, OVCAR 3; format: cell-based; conditions: Homo sapiens; Ovarian, OVCAR 3, 48 hours treatment; read-out: IC50, C3b (OVCAR 3)
Experimental: as §1, §2, §3

A549 = test: Cytotoxicity, propidium iodide assay, A549; format: cell-based; conditions: Homo sapiens; Lung, A549, 48 hours treatment; read-out: IC50, C1a (A549)
Experimental: as §1, §2, §3

U 373 = test: Cytotoxicity, propidium iodide assay, U 373; format: cell-based; conditions: Homo sapiens, U373 MG; Glioblastoma, U 373, 48 hours treatment; read-out: IC50, C7a (U 373)
Experimental: as §1, §2, §3

PC3 = test: Cytotoxicity, propidium iodide assay, PC3; format: cell-based; conditions: Homo sapiens, PC-3; Prostate, PC3, 48 hours treatment; read-out: IC50, C2a (PC3)
Experimental: as §1, §2, §3

H460 = test: Cytotoxicity, propidium iodide assay, H460; format: cell-based; conditions: Homo sapiens, NCI-H460; Lung, H460, 48 hours treatment; read-out: IC50, C1b (H460)
Experimental: as §1, §2, §3

PI3K α = test: PI3K activity assay, cell-based ELISA of AKT (Ser 473) phosphorylation; conditions: Homo sapiens, Ovarian cell line A2780, 20% FCS stimulation
Experimental: The assay was designed as in the reference, Biochemical Journal, 2000, 350, 717-722, the disclosure of which is incorporated by reference for the teaching of the assay.
Seed cells (Ovarian cell line A2780, ATCC) were plated in a 96 well microtitre plate at a density of 50,000 cells/cm^2 in appropriate complete cell culture medium. The cells were allowed to adhere for 18-24 hours. The cells were allowed to starve for 24 hours. The cells were pretreated (in triplicates) with the compounds of Example 1-40 (stock solution was prepared in DMSO and subsequent dilutions were made in kinase buffer) at a concentration of 10 μM for one hour. Then the cells were stimulated with 20% FCS for 30 minutes. A typical assay would consist of a set of unstimulated cells, a set of stimulated cells and a set of cells treated with compounds of Example 1-40 and a set of cells treated with the stimulator. The medium was discarded. The cells were fixed with 100 μL of 3.7% formaldehyde for 15 minutes. The formaldehyde was discarded by inverting the plate and tapping it on a thick tissue paper layer to remove traces. The cells were washed and permeabilized with 200 μL PBS+Triton-X 100 solution (hereafter referred to as PBS-Triton, containing 0.1% triton-X 100 in 1×PBS) three times, incubating the cells each time for 5 minutes. 100 μL blocking solution (10% FCS in PBS-Triton) was added and incubated for 1 hour at 25° C. The blocking solution was discarded and cells were incubated with the primary antibody in PBS-Triton at a dilution of 1:500 for 1 hour at RT (25° C.). [The primary antibody is Phospho-AKT (Ser 473); Cell Signaling; USA, Cat. No. 9271]. The primary antibody solution was discarded and the cells were washed 3 times with PBS-Triton solution and incubated with the HRP-conjugated secondary antibody in PBS-Triton at a dilution of 1:500 for 1 hour at RT (25° C.). The cells were washed 3 times with PBS-Triton followed by two washes with PBS (to remove traces of triton-X 100). The OPD (o-phenylene diamine dihydrochloride) substrate was prepared for detection of the signal by dissolving one tablet set (two tablets) of SigmaFast OPD (Sigma, USA, Cat No. P9187) in 20 mL distilled water. It should be kept protected from light. 100 μL OPD solutions was added to the wells and the plate was incubated in the dark for 3-5 minutes (depending upon the development of the color). The reaction was stopped by adding 50 μL 2 NH2SO4. The absorbance was measured at 490 nm. The values were expressed in the treated samples, in terms of percentage or fold decrease in AKT phosphorylation with respect to the induced sample. PI-103 (Calbiochem, USA) was used as a standard.

PI3Kα kinase = target: T1, PI3Kα kinase (Homo sapiens, UniProt P42336); test: PI3Kα assay (32P incorporation into phosphatidylinositol, TLC densitometry); format: biochemical; conditions: At 100 nM
T1 construct: purchased Millipore, USA
Experimental: The assay was designed as in the reference, Cell, 2006, 125, 733-47 (Supplemental Data), the disclosure of which is incorporated by reference for the teaching of the assay.
The kinase reaction was carried out in a 25 μL volume in a 1.5 mL microcentrifuge tube. The reaction mixture consisted of kinase buffer (10 mM Hepes, pH 7.5, 50 mM MgCl2), 20 ng PI3Kα kinase (Millipore, USA), 12.5 μg phosphatidylinositol (PI), 10 μM ATP and 1 μCi ^32γ P dATP. Compounds of Example 1-40 were added at concentrations (stock solution was prepared in DMSO and subsequent dilutions were made in kinase buffer) as mentioned in the table. The reaction mixture was incubated at 30° C. for 20 minutes and was terminated by adding 1:1 mixture of MeOH and chloroform. The tube contents were mixed on a vortex mixer and centrifuged at 10000 rpm for 2 minutes. 10 μL of the organic (lower) phase was spotted on to a TLC plate (silica, mobile phase: n-propanol and 2 M glacial acetic acid in 65:35 ratio). The plates were dried and exposed to an X-ray film. The bands appearing as a result of ^32γ P incorporation in PI were quantitated using the QuantityOne (BioRad, USA) densitometry program. PI-103 (Calbiochem, USA) was used as a standard.

PANC 1 = test: Cytotoxicity, propidium iodide assay, PANC 1; format: cell-based; conditions: Homo sapiens; Pancreatic, PANC 1, 48 hours treatment; read-out: IC50, C5a (PANC 1)
Experimental: as §1, §2, §3

A2780 = test: Cytotoxicity, propidium iodide assay, A2780; format: cell-based; conditions: Homo sapiens; Ovarian, A2780, 48 hours treatment; read-out: IC50, C3a (A2780)
Experimental: as §1, §2, §3

TNF-α = test: Human monocyte assay, LPS-stimulated TNF-α (ELISA); format: cell-based; conditions: human monocytes, 1 μg/ml LPS, 5 hours, read-out: TNFα (IC50)
Experimental: as §4, §5

T1 sequence (P42336 whole entry): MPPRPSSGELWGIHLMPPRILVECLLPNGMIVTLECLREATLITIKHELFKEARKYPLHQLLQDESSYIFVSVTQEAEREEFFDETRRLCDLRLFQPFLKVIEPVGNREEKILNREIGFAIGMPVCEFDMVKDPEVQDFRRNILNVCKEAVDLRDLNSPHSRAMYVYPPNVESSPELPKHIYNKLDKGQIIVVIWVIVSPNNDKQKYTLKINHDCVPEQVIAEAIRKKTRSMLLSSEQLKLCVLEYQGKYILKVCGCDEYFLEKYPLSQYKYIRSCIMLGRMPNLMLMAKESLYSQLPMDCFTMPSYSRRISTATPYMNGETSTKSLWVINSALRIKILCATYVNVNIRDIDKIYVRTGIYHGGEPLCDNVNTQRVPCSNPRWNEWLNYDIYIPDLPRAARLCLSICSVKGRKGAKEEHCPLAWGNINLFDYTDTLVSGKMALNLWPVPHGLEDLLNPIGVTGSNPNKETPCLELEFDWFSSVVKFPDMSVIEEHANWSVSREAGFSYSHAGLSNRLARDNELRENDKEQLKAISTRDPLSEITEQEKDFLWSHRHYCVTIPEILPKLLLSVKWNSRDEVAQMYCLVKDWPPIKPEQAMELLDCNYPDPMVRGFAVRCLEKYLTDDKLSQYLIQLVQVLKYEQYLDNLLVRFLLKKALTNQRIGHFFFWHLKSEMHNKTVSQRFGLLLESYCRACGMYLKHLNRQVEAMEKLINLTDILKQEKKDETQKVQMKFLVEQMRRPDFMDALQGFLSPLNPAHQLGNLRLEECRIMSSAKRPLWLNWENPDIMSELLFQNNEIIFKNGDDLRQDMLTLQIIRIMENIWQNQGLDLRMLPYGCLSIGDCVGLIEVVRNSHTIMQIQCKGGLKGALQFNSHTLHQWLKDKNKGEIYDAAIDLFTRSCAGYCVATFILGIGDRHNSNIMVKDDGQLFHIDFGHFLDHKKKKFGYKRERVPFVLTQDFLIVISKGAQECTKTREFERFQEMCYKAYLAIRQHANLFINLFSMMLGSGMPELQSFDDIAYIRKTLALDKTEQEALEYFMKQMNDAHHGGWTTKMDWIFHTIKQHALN
T1 sequence (P27986 whole entry partner): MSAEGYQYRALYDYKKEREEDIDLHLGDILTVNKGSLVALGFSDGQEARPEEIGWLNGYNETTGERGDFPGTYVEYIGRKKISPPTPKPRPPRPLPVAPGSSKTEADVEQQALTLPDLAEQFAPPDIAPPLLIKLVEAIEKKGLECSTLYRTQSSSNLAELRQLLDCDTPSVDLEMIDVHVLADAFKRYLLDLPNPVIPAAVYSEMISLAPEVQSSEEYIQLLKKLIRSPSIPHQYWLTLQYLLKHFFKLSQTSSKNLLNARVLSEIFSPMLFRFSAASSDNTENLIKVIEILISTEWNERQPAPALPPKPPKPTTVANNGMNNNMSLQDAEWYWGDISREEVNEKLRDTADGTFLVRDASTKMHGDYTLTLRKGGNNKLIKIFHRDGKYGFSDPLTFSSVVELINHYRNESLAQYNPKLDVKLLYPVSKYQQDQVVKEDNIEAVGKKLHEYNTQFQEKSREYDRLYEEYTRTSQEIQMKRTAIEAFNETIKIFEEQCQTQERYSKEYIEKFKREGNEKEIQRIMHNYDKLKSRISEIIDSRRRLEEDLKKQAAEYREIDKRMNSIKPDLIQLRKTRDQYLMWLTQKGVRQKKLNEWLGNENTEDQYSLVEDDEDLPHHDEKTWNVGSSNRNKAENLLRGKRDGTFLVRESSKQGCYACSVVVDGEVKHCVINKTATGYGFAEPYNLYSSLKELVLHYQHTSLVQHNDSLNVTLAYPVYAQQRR

Compound | IC50 (IL-6) [nM] | inhibition at 0.1 µM (PI3Kα kinase) [%] | IC50 (TNF-α) [nM] | IC50 (U 87 MG) [nM] | IC50 (HCT116) [nM] | IC50 (OVCAR 3) [nM] | IC50 (A549) [nM] | IC50 (U 373) [nM] | IC50 (PC3) [nM] | IC50 (H460) [nM] | inhibition at 10 µM (PI3K α) [%] | IC50 (PANC 1) [nM] | IC50 (A2780) [nM]
Cc1ccc(S(=O)(=O)n2c(=O)n(-c3ccc(C(C)(C)C#N)cc3)c3c4cc(Br)ccc4ncc32)cc1F [Example 5, 2-(4-(8-Bromo-3-(3-fluoro-4-methylphenylsulfonyl)-2-oxo-2,3-dihydro-1H-imidazo[4,5-c]quinolin-1-yl)phenyl)-2-methylpropanenitrile] | – | – | – | 1000 to 3000 | > 3000 | > 3000 | 1000 to 3000 | > 3000 | 1000 to 3000 | 1000 to 3000 | – | – | –
CC(C)(C#N)c1ccc(-n2c(=O)n(C(=O)Nc3ccccc3Br)c3cnc4ccc(Br)cc4c32)cc1 [Example 33, 8-Bromo-N-(2-bromophenyl)-1-(4-(2-cyanopropan-2-yl)phenyl)-2-oxo-1H-imidazo[4,5-c]quinoline-3(2H)-carboxamide] | > 30000 | > 50 | ≤ 1000 | > 3000 | > 3000 | > 3000 | 1000 to 3000 | > 3000 | > 3000 | 1000 to 3000 | – | – | –
CC(=O)n1c(=O)n(-c2ccc(C(C)(C)C#N)cc2)c2c3cc(Cl)ccc3ncc21 [Example 36, 2-(4-(3-Acetyl-8-chloro-2-oxo-2,3-dihydro-1H-imidazo[4,5-c]quinolin-1-yl)phenyl)-2-methylpropanenitrile] | – | 10 to 50 | – | > 3000 | > 3000 | > 3000 | 1000 to 3000 | > 3000 | > 3000 | ≤ 1000 | – | – | –

The next lines start with results.

IC50 (IL-6) [nM] | inhibition at 0.1 µM (PI3Kα kinase) [%] | IC50 (TNF-α) [nM] | Compound | IC50 (U 87 MG) [nM] | IC50 (HCT116) [nM] | IC50 (OVCAR 3) [nM] | IC50 (A549) [nM] | IC50 (U 373) [nM] | IC50 (PC3) [nM] | IC50 (H460) [nM] | inhibition at 10 µM (PI3K α) [%] | IC50 (PANC 1) [nM] | IC50 (A2780) [nM]
1000 to 10000 | – | – | Cc1ccc([N+](=O)[O-])cc1S(=O)(=O)n1c(=O)n(-c2ccc(C(C)(C)C#N)cc2)c2c3cc(Br)ccc3ncc21 [Example 4, 2-(4-(8-Bromo-3-(2-methyl-5-nitrophenylsulfonyl)-2-oxo-2,3-dihydro-1H-imidazo[4,5-c]quinolin-1-yl)phenyl)-2-methylpropanenitrile] | 1000 to 3000 | > 3000 | > 3000 | 1000 to 3000 | > 3000 | 1000 to 3000 | 1000 to 3000 | – | – | –
> 30000 | > 50 | – | Cc1cc(C)cc(S(=O)(=O)n2c(=O)n(-c3ccc(C(C)(C)C#N)cc3)c3c4cc(Br)ccc4ncc32)c1 [Example 6, 2-(4-(8-Bromo-3-(3,5-dimethylphenylsulfonyl)-2-oxo-2,3-dihydro-1H-imidazo[4,5-c]quinolin-1-yl)phenyl)-2-methylpropanenitrile] | > 3000 | > 3000 | > 3000 | > 3000 | > 3000 | 1000 to 3000 | > 3000 | 10 to 50 | – | –
– | 10 to 50 | – | CC(C)(C#N)c1ccc(-n2c(=O)n(S(=O)(=O)c3cccc(C(F)(F)F)c3)c3cnc4ccc(Br)cc4c32)cc1 [Example 13, 2-(4-(8-Bromo-2-oxo-3-(3-(trifluoromethyl)phenylsulfonyl)-2,3-dihydro-1H-imidazo[4,5-c]quinolin-1-yl)phenyl)-2-methylpropanenitrile] | > 3000 | > 3000 | > 3000 | > 3000 | > 3000 | > 3000 | > 3000 | – | – | –
1000 to 10000 | – | – | CC(C)(C#N)c1ccc(-n2c(=O)n(S(=O)(=O)c3cccc(Br)c3)c3cnc4ccc(Br)cc4c32)cc1 [Example 15, 2-(4-(8-Bromo-3-(3-bromophenylsulfonyl)-2-oxo-2,3-dihydro-1H-imidazo[4,5-c]quinolin-1-yl)phenyl)-2-methylpropanenitrile] | – | 1000 to 3000 | – | > 3000 | – | – | – | – | > 3000 | > 3000
